Experimental data: PMC9979702 (Bioorganic & Medicinal Chemistry Letters, 2023)

Assays:
SARS-CoV-2 = type: cell-based; conditions: Vero cells
hERG = hERG (Homo sapiens, UniProt Q12809); conditions: even at 100 µM
Sequence of hERG (Q12809 whole entry): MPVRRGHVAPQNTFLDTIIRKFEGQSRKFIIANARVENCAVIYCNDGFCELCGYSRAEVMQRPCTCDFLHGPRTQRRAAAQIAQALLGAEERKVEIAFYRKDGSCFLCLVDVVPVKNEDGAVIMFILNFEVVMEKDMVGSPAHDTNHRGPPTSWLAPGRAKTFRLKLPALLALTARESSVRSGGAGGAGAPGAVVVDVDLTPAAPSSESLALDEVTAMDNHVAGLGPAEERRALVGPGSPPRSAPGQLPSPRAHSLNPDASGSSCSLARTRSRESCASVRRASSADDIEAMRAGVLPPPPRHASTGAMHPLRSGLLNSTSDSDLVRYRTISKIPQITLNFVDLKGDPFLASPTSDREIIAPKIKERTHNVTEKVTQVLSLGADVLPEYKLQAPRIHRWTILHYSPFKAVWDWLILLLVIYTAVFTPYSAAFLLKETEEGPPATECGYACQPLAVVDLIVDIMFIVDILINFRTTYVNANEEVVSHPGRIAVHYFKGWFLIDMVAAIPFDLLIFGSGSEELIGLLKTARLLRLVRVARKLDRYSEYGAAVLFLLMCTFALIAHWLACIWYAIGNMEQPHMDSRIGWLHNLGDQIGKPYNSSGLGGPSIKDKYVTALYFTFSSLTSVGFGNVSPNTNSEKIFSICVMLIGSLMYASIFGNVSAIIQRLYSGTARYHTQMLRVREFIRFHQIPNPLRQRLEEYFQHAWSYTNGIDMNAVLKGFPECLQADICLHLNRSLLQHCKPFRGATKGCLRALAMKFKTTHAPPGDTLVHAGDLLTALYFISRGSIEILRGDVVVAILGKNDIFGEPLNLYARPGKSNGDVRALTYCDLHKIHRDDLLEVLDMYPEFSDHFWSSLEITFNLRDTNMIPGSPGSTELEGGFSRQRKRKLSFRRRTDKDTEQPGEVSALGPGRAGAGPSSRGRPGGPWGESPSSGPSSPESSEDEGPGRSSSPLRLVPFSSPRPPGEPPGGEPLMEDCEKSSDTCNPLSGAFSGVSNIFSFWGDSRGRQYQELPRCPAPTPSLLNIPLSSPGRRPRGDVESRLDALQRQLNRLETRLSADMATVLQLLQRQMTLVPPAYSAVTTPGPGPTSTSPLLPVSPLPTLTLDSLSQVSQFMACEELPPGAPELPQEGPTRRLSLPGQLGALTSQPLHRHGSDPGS

Compound | antiviral activity against SARS-CoV-2 (in words) (SARS-CoV-2) | hERG binding (in words) (hERG)
CN(C)CCCNc1[nH]c2cc(Cl)ccc2c(=O)c1C(=O)O [Compound 7a, 7-chloro-2-((3-(dimethylamino)propyl)amino)-4-oxo-1,4-dihydroquinoline-3-carboxylic acid] | no activity | –
O=C(O)c1c(Nc2cccc(F)c2)[nH]c2cc(Cl)ccc2c1=O [Compound 9b, 7-chloro-2-((3-fluorophenyl)amino)-4-oxo-1,4-dihydroquinoline-3-carboxylic acid] | – | no hERG binding was detected
O=C(O)c1c(Nc2cccc(F)c2)[nH]c2cc(F)c(F)cc2c1=O [Compound 9f, 6,7-difluoro-2-((3-fluorophenyl)amino)-4-oxo-1,4-dihydroquinoline-3-carboxylic acid] | had antiviral activity | –
O=c1cc(Nc2cccc(F)c2)[nH]c2cc(F)c(F)cc12 [Compound 10, 6,7-difluoro-2-((3-fluorophenyl)amino)quinolin-4(1H)-one] | no activity | –
